Results reported in patent publication US9283218B2, “Solid dispersion with improved solubility comprising tetrazole derivative as an active ingredient” (HANMI PHARM. CO., LTD., priority 2012, dated 2016).
Where a name gives a salt, the structure may show the parent alone.

What was measured:
[1] = Dissolution characteristics of HM30181A in mixed solvents of MC, EtOH and DW; type: physicochemical
[2] = Solubilities of active ingredient in various solvents (excess added, shaken 2 hours, centrifuged, HPLC); type: physicochemical
Description: In order to find out the most suitable solvent for the solid dispersion, an excessive amount of HM30181A, as an active ingredient, was added to a solvent, shook for 2 hours, and then the resulting mixture was centrifuged and analyzed by HPLC to measure the solubility. Solvents used for solubility test were MC, methanol, EtOH, hexane, diethyl ether, isopropyl alcohol, acetone and DW.

[3] = Composition 1: HM30181A 15 mg, methylene chloride 450 mg, ethanol 50 mg, distilled water 0 mg
[4] = Composition 2: HM30181A 15 mg, methylene chloride 350 mg, ethanol 150 mg, distilled water 0 mg
[5] = Composition 3: HM30181A 15 mg, methylene chloride 250 mg, ethanol 250 mg, distilled water 0 mg
[6] = Composition 5: HM30181A 15 mg, methylene chloride 350 mg, ethanol 150 mg, distilled water 25 mg

With `COc1cc2c(cc1OC)CN(CCc1ccc(-n3nnc(-c4cc(OC)c(OC)cc4NC(=O)c4cc(=O)c5ccccc5o4)n3)cc1)CC2` [HM30181A, chromone-2-carboxylic acid [2-(2-{4-[2-(6,7-dimethoxy-3,4-di-hydro-1H-isoquinolin-2-yl)-ethyl]-phenyl}-2H-tetrazol-5-yl)-4,5-dimethoxyphenyl]amine mesylate] the Solubility [1, 3] was 10,260 ppm, the Solution appearance [1, 3] was “Clouded” and the Solubility [1, 4] was 20,370 ppm. The Solution appearance [1, 4] was “Clouded”, the Solubility [1, 5] was 4,710 ppm and the Solution appearance [1, 5] was “Clouded”. The Solubility [1, 6] was 27,850 ppm, the Solution appearance [1, 6] was “Clear” and the Solubility ([2]; solvent: acetone) was 9.23 ppm. For the same compound, the Solubility ([2]; solvent: diethyl ether) was 0.00 ppm, the Solubility ([2]; solvent: distilled water) was 0.00 ppm and the Solubility ([2]; solvent: ethanol) was 382.63 ppm. The Solubility ([2]; solvent: hexane) was 0.05 ppm, the Solubility ([2]; solvent: isopropyl alcohol) was 31.29 ppm and the Solubility ([2]; solvent: methanol) was 10177.50 ppm. It also gave a Solubility ([2]; solvent: methylene chloride) of 6848.28 ppm.
